Source: ChEMBL document CHEMBL1641562, “Modifications of the C6-substituent of penicillin sulfones with the goal of improving inhibitor recognition and efficacy” (Bioorg Med Chem Lett, 2011)

How the values were obtained:
[1] = Inhibition of beta-lactamase TEM-1
[2] = Inhibition of beta-lactamase PDC-3

| Structure (SMILES) | IC50 [1] [µM] | IC50 [2] [µM] |
| --- | --- | --- |
| CC1(C)[C@H](C(=O)O)N2C(=O)[C@@H]([C@@H](O)CN)[C@H]2S1(=O)=O | 1.2 | 1.2 |
| CC1(C)[C@H](C(=O)O)N2C(=O)[C@@H](CN)[C@H]2S1(=O)=O | 0.45 | > 50 |
| CC1(C)[C@H](C(=O)O)N2C(=O)C[C@H]2S1(=O)=O [SULBACTAM] | – | 4.3 |
| CC1(C)[C@H](C(=O)O)N2C(=O)[C@@H](CCCO)[C@H]2S1(=O)=O | > 50 | – |
| CC1(C)[C@H](C(=O)O)N2C(=O)[C@@H](CCO)[C@H]2S1(=O)=O | > 50 | – |
| CC1(C)[C@H](C(=O)O)N2C(=O)[C@@H](NC(=O)Cc3ccccc3)[C@H]2S1(=O)=O | > 50 | > 50 |
| CC1(C)[C@H](C(=O)O)N2C(=O)[C@@H](NCC(=O)O)[C@H]2S1(=O)=O | > 50 | – |
| C=CC[C@@H]1C(=O)N2[C@@H](C(=O)OC(c3ccccc3)c3ccccc3)C(C)(C)S(=O)(=O)[C@H]12 | 35 | 1.2 |
| CC1(C)[C@H](C(=O)O)N2C(=O)[C@@H](CNC(=O)Cc3ccccc3)[C@H]2S1(=O)=O | > 50 | – |
| CC1(C)[C@H](C(=O)O)N2C(=O)[C@@H](N)[C@H]2S1(=O)=O | 8.4 | > 50 |
| CC1(C)[C@H](C(=O)O)N2C(=O)[C@@H](NS(=O)(=O)C(F)(F)F)[C@H]2S1(=O)=O | > 50 | – |

Further lines, results first:

| IC50 [1] [µM] | IC50 [2] [µM] | Structure (SMILES) |
| --- | --- | --- |
| > 50 | – | CC1(C)[C@H](C(=O)O)N2C(=O)[C@@H](CC(=O)O)[C@H]2S1(=O)=O |
| 0.18 | – | CC1(C)[C@H](C(=O)O)N2C(=O)[C@@H]([C@@H](O)C(=O)N3CCCC3)[C@H]2S1(=O)=O |
| > 50 | – | CC(C)(C)C(=O)NC[C@@H]1C(=O)N2[C@@H](C(=O)O)C(C)(C)S(=O)(=O)[C@H]12 |
| > 50 | – | C=CCOC(=O)NC[C@@H]1C(=O)N2[C@@H](C(=O)O)C(C)(C)S(=O)(=O)[C@H]12 |
| > 50 | – | COc1cccc(OC)c1C(=O)N[C@@H]1C(=O)N2[C@@H](C(=O)O)C(C)(C)S(=O)(=O)[C@H]12 |
| > 50 | – | Cc1onc(-c2ccccc2)c1C(=O)N[C@@H]1C(=O)N2[C@@H](C(=O)O)C(C)(C)S(=O)(=O)[C@H]12 |
| > 50 | > 50 | CC1(C)[C@H](C(=O)O)N2C(=O)[C@@H](CC(=O)NO)[C@H]2S1(=O)=O |
| > 50 | > 50 | CC1(C)[C@H](C(=O)O)N2C(=O)[C@@H](CC(O)O)[C@H]2S1(=O)=O |
| 6.1 | – | CC1(C)[C@H](C(=O)O)N2C(=O)[C@@H](CNS(=O)(=O)C(F)(F)F)[C@H]2S1(=O)=O |
